# Results taken from patent publication US6803233B2, “Model for Alzheimer's disease and other neurodegenerative diseases” (priority 2000, dated 2004).
# Legend:
# tangle-like formations = test: Electron microscopic immunogold analysis of cultured slices; type: cell-based, mouse; settings: ZPAD 6 days
# Description: Lowicryl resin-embedded ultrathin sections (of 70-80 nm thickness) were picked up on either pioloform-coated nickel slot grids or pioloform-coated 400 mesh nickel grids. The grids were incubated on drops of blocking solution, followed by incubation on drops of primary antibodies (AT8 or PHF-1). After the incubation with primary antibodies, the sections were washed in TBS (three times for 10 min each) and in 50 mM Tris-HCl, pH 7.4, containing 0.9% NaCl (“TBS*”; once for 10 min; TBS* has 50 mM Tris-HCl and 0.9% NaCl without KCl, while TBS has 25 mM Tris-HCl and KCl) ) and incubated on drops of goat anti-mouse IgG coupled to 10 nm gold particles (British BioCell Int.). The secondary antibodies were diluted 1:100 in TBS* containing 0.05% polyethylene glycol 20000 (BDH; Merck) and 1% gelatin for 2 hr at 28° C. After additional washing in TBS* (three times for 10 min each) and PBS (once for 10 min), the sections were post-fixed in 2% glutaraldehyde in PBS for 2 min at room temperature and then washed in bidistilled water (three times for 10 min each). Finally, the sections were contrasted with saturated aqueous uranyl acetate followed by staining with lead citrate. […]
# reactive microglia = test: ED-1 immunocytochemistry of cultured brain explants; type: cell-based, rat; settings: ZPAD 20 μM, mevastatin 20 μM or PD98059 50 μM alone, 6 days
# Description: Immunocytochemical studies using the monoclonal antibody ED-1 that recognizes reactive microglia were used at 1:1000 dilution following standard immunohistochemical procedures. Microglial activation was determined by measuring cell numbers, optical density, and size of cell bodies using the program NIH Image. Brain tissue was cultured for 12 days and treated with ZPAD (20 μM) in the presence or absence of PD98059 (50 μM) for 6 days (FIG. 18). Cultured explants were then sliced and stained by using monoclonal antibody ED-1 which recognizes reactive microglia, a classical marker of inflammation. […] Cultured brain explants were then sliced and stained by using monoclonal antibody ED-1, a classical marker for reactive microglia and macrophages.
substance,measurement,setting,value
N-CBZ-L-phenylalanyl-L-alanine-diazomethyl-ketone [ZPAD],ultrastructure: intracellular inclusions,tangle-like formations,Numerous intracellular inclusions
same,reaction of microglia (ED-1 staining),reactive microglia,triggered significant reaction of microglia
